As a reminder, the mass density is the mass of a sample divided by its volume.

The structures appear in SMILES notation. Numbers after ± are expanded uncertainties.

For data set [1] the following is noted: 101.3 kPa, Liquid.
Data set [2] is described as follows: xn = mol fraction of the nth substance listed. Conditions: 101.3 kPa, Liquid, x2 = 0.

With `CCC(C)O` (centres undefined) [butan-2-ol], the mass density in data set [1] (288.15 K) is reported as 810.689 ± 0.55 kg/m3; in data set [1] (293.15 K), 806.646 ± 0.56 kg/m3; in data set [1] (298.15 K), 802.528 ± 0.56 kg/m3; in data set [1] (303.15 K) it was 798.326 ± 0.57 kg/m3; in data set [1] (308.15 K) it was 794.03 ± 0.57 kg/m3; in data set [1] (313.15 K), 789.632 ± 0.58 kg/m3. The values for the mass density in data set [1] (318.15 K) and in data set [1] (323.15 K) were 785.117 ± 0.58 kg/m3 and 780.515 ± 0.59 kg/m3, respectively.
`CCCCCCC` [heptane]: the mass density in data set [1] (288.15 K) is given as 687.954 ± 0.64 kg/m3; in data set [1] (293.15 K), 683.733 ± 0.64 kg/m3; in data set [1] (298.15 K), 679.494 ± 0.65 kg/m3; in data set [1] (303.15 K), 675.229 ± 0.66 kg/m3; in data set [1] (308.15 K), 670.941 ± 0.66 kg/m3; in data set [1] (313.15 K), 666.621 ± 0.67 kg/m3. The mass density in data set [1] (318.15 K) is 662.273 ± 0.68 kg/m3; in data set [1] (323.15 K), 657.896 ± 0.68 kg/m3.
Regarding `CCCCCCC` [heptane] + CCC(C)O, the mass density in data set [2] (288.15 K) is 687.954 ± 0.64 kg/m3; in data set [2] (293.15 K), 683.733 ± 0.64 kg/m3; in data set [2] (298.15 K), 679.494 ± 0.65 kg/m3; in data set [2] (303.15 K), 675.229 ± 0.66 kg/m3; in data set [2] (308.15 K) it was 670.941 ± 0.66 kg/m3; in data set [2] (313.15 K), 666.621 ± 0.67 kg/m3. The mass density in data set [2] (318.15 K) came to 662.273 ± 0.68 kg/m3; in data set [2] (323.15 K) it was 657.896 ± 0.68 kg/m3.
